Paper PMC5938026 (Experimental & Molecular Medicine, 2018)

molecular target: Kv1.5 (Rattus norvegicus, UniProt P19024); test: whole-cell patch clamp of CHO cells overexpressing Kv1.[…]; assay type: cell-based
Sequence (P19024 whole entry): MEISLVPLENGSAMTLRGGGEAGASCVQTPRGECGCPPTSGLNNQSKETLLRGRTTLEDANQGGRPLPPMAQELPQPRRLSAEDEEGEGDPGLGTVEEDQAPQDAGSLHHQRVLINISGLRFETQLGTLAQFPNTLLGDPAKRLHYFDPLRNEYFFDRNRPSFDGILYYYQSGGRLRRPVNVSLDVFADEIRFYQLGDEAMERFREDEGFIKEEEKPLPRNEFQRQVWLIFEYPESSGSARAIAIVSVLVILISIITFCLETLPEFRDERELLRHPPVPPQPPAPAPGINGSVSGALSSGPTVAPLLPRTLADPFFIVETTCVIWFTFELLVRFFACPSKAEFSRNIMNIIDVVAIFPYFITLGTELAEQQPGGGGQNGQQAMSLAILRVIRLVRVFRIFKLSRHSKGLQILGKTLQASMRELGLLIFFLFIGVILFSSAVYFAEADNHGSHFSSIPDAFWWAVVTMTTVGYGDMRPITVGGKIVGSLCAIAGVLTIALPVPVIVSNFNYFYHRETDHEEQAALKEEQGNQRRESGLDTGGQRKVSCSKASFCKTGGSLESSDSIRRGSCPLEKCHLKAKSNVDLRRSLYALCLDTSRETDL

Structure (SMILES) | IC50 [µM]
CNC1(c2ccccc2Cl)CCCCC1=O (racemic) [ketamine] | 641 ± 33.2
C[C@]12N[C@H](Cc3ccccc31)c1ccccc12 [(+) MK801] | 157 ± 14
C[C@@]12N[C@@H](Cc3ccccc31)c1ccccc12 [(−) MK801] | 157 ± 7.9
